Activity calls are given as the source filed them. The calls are words filed in the database; no cut-off is given here.
Key:
[1] = Inhibition of TNF-alpha induced ICAM-1 protein expression in HUVEC cells; assay type: functional, cell-based; conditions: Homo sapiens
[2] = target: T1, Polyunsaturated fatty acid lipoxygenase ALOX15 (Homo sapiens, UniProt P16050); test: Inhibition of LOX-15 (unknown origin)
T1 sequence (P16050 whole entry): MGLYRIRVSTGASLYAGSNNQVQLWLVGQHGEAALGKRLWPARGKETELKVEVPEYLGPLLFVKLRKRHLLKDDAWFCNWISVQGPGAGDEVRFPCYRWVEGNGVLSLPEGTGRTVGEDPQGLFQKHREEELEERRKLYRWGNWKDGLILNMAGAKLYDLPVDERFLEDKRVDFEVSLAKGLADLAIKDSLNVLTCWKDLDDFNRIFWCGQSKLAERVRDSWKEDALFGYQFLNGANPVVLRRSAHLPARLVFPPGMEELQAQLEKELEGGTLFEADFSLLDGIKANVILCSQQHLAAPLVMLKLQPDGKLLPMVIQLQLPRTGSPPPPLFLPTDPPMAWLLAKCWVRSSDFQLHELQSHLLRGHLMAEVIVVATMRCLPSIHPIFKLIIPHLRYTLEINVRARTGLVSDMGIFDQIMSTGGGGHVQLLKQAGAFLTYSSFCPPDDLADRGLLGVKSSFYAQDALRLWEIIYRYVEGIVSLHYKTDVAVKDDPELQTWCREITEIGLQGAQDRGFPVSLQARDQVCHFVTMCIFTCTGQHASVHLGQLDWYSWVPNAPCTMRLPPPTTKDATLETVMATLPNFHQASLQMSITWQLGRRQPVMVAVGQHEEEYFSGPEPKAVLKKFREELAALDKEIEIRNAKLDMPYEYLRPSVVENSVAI

RAW264.7 [3] = test: Antiinflammatory activity in LPS-induced mouse RAW264.7 cells assessed as reduction in iNOS protein expression pretreated for 1 hr followed by LPS stimulation and measured after 24 hrs by Western blot analysis; assay type: functional, cell-based; conditions: dose 10-20 µM, time 25.0 hrs
RAW264.7 [4] = test: Inhibition of LPS-induced NF-kappaB activation in mouse RAW264.7 cells assessed as reduction in nuclear translocation pretreated for 1 hr followed by LPS stimulation and measured after 24 hrs by immunofluorescence staining based fluorescence microscopic analysis; assay type: cell-based; conditions: dose 10-20 µM, time 25.0 hrs
RAW264.7 [5] = test: Effect on NF-kappaB p65 protein expression in LPS-induced mouse RAW264.7 cells at 10 to 20 uM pretreated for 1 hr followed by LPS stimulation and measured after 24 hrs by Western blot analysis; assay type: functional, cell-based; conditions: dose 10-20 µM, time 25.0 hrs
RAW264.7 [6] = test: Antiinflammatory activity in LPS-induced mouse RAW264.7 cells assessed as inhibition of NO production pretreated for 1 hr followed by LPS stimulation and measured after 23 hrs by Griess method; assay type: functional, cell-based
RAW264.7 [7] = test: Antiinflammatory activity in LPS-induced mouse RAW264.7 cells assessed as inhibition of IL-6 production at 20 uM pretreated for 1 hr followed by LPS stimulation and measured after 24 hrs by ELISA; assay type: functional, cell-based; conditions: time 25.0 hrs
RAW264.7 [8] = test: Antiinflammatory activity in LPS-induced mouse RAW264.7 cells assessed as inhibition of NO production at 1 to 20 uM pretreated for 1 hr followed by LPS stimulation and measured after 23 hrs by Griess method; assay type: functional, cell-based; conditions: dose 1-20 µM, time 24.0 hrs
RAW264.7 [9] = test: Inhibition of LPS-induced NF-kappaB activation in mouse RAW264.7 cells assessed as inhibition of p65 phosphorylation pretreated for 1 hr followed by LPS stimulation and measured after 24 hrs by Western blot analysis; assay type: cell-based; conditions: dose 10-20 µM, time 25.0 hrs
RAW264.7 [10] = test: Cytotoxicity against mouse RAW264.7 cells assessed as reduction in cell viability at 1 to 20 uM incubated for 24 hrs by MTT assay; assay type: toxicity, cell-based; conditions: raw264.7, 24 h, dose 1-20 µM
RAW264.7 [11] = test: Antiinflammatory activity in LPS-induced mouse RAW264.7 cells assessed as inhibition of TNF-alpha production at 20 uM pretreated for 1 hr followed by LPS stimulation and measured after 24 hrs by ELISA; assay type: functional, cell-based; conditions: time 25.0 hrs
RAW264.7 [12] = test: Antiinflammatory activity in LPS-induced mouse RAW264.7 cells assessed as inhibition of IL-6 production pretreated for 1 hr followed by LPS stimulation and measured after 24 hrs by ELISA; assay type: functional, cell-based; conditions: dose 1-10 µM, time 25.0 hrs
RAW264.7 [13] = test: Antiinflammatory activity in LPS-induced mouse RAW264.7 cells assessed as inhibition of TNF-alpha production pretreated for 1 hr followed by LPS stimulation and measured after 24 hrs by ELISA; assay type: functional, cell-based; conditions: dose 1-10 µM, time 25.0 hrs
RAW264.7 [14] = test: Antiinflammatory activity in LPS-induced mouse RAW264.7 cells assessed as increase in IL-10 production pretreated for 1 hr followed by LPS stimulation and measured after 24 hrs by ELISA; assay type: functional, cell-based; conditions: dose 1-10 µM, time 25.0 hrs
RAW264.7 [15] = test: Antiinflammatory activity in LPS-induced mouse RAW264.7 cells assessed as reduction in COX-2 protein expression pretreated for 1 hr followed by LPS stimulation and measured after 24 hrs by Western blot analysis; assay type: functional, cell-based; conditions: dose 10-20 µM, time 25.0 hrs

**Q.** For COc1ccc(N/N=C2\C(=O)N(CCCn3cncn3)c3ccc(Br)cc32)cc1, which IC50 [1] is on record?
**A.** The IC50 was 20 µM.

**Q.** With CN(C)c1ccc(/C=C/C(=O)c2cccc(-n3cc(CN4C(=O)C(=O)c5ccccc54)nn3)c2)cc1 as the compound, how does the IC50 [2] read?
**A.** The IC50 was 1.58 µM.

**Q.** Which Activity (RAW264.7 [3]) does the source give for C=C1CC[C@H]2C(C)(C)CCC[C@]2(C)[C@H]1C/C=C(/C=O)CC(=O)OCc1cn(CCN2C(=O)C(=O)c3ccccc32)nn1 here?
**A.** Its Activity is “Dose-Dependent Effect”.

**Q.** And the inhibition (RAW264.7 [4])?
**A.** Its inhibition is “Dose-Dependent Effect”.

**Q.** And the Activity (RAW264.7 [5])?
**A.** The Activity was “inactive”.

**Q.** What about the IC50 (RAW264.7 [6]) of the same compound?
**A.** Its IC50 is 3.13 µM.

**Q.** And the Activity (RAW264.7 [7])?
**A.** Its Activity is “Active”.

**Q.** What about the Activity (RAW264.7 [8]) of the same compound?
**A.** The Activity was “Active”.

**Q.** What about the inhibition (RAW264.7 [9]) of the same compound?
**A.** The inhibition was “Dose-Dependent Effect”.

**Q.** What about the Activity (RAW264.7 [10]) of the same compound?
**A.** Its Activity is “Non-Toxic”.

**Q.** What about the Activity (RAW264.7 [11]) of the same compound?
**A.** The Activity was “Active”.

**Q.** And the Activity (RAW264.7 [12])?
**A.** The Activity was “Dose-Dependent Effect”.

**Q.** What about the Activity (RAW264.7 [13]) of the same compound?
**A.** The Activity was “Dose-Dependent Effect”.

**Q.** And the Activity (RAW264.7 [14])?
**A.** Its Activity is “Dose-Dependent Effect”.

**Q.** What about the Activity (RAW264.7 [15]) of the same compound?
**A.** The Activity was “Dose-Dependent Effect”.

From ChEMBL document CHEMBL5579867, “Ligand-Based Pharmacophoric Design and Anti-inflammatory Evaluation of Triazole Linked Semisynthetic Labdane Conjugates” (ACS Med Chem Lett, 2024)
